Patent US20120040916A1, “MOLECULAR INHIBITORS OF THE WNT/BETA-CATENIN PATHWAY” (MASSACHUSETTS INSTITUTE OF TECHNOLOGY, priority 2008, published 2012)

Key:
[1] = test system: nuclear β-catenin in B16 cells; experiment: Immunofluorescent staining of β-catenin in B16 cells; format: cell-based, murine
Protocol: A polyclonal rabbit anti-β-catenin antibody was used for detection of β-catenin (1:1000 dilution for immunoblot, 1:200 dilution for immunohistochemistry). Cells were grown on 18 mm glass coverslips, for 48-72 hours, fixed using 4% paraformaldehyde, permeabilized using 0.25% Triton X-100, and then blocked with 10% goat serum. Goat anti-rabbit Alexa Fluor-568 antibody (Molecular Probes; Eugene, Oreg.) was diluted 1:1000. Cells were counterstained for nucleic acid with DAPI (Molecular Probes; Eugene, Oreg.). Paraffin-embedded nevus sections were stained using an antibody dilution of 1:200. Cellular lysates were obtained by lysing cells on plate with a 0.1% NP-40 based buffer and analyzed by NuPage 4-12% gradient gels (Invitrogen; Grand Island, N.Y.). The WNT5A antibody was obtained from Cell Signaling Technologies (Danvers, Mass.).

[2] = test system: Wnt/β-catenin pathway (Axin2) in B16 cells; experiment: Quantitative PCR of Axin2 in B16 cells; format: cell-based, murine
Protocol: Cells were cultured for approximately 72 hours until they reached 80-90% confluency. RNA was purified using the RNeasy kit using the manufacturer's protocol (Qiagen; Maryland, MD). cDNA was synthesized using Superscript Reverse Transcriptase (Invitrogen; Grand Island, N.Y.). Light Cycler FastStart DNA Master SYBR Green1 (Roche; Mannheim, Germany) was used for real-time PCR as previously described (Major et al., Science 316:1043 (2007), which is hereby incorporated by reference in its entirety). Quantitative PCR results presented in the manuscript are representative of experiments performed on a minimum of three biologic replicates.

[3] = test system: B16 melanoma cells; experiment: MTT proliferation assay of B16 melanoma cells; format: cell-based, murine
[4] = test system: human melanoma cell lines; experiment: Proliferation of human melanoma cell lines (hematocytometer or MTT assay); format: cell-based; conditions: 10 mM lithium chloride, 3-7 days, FIG. 4D

Compound | Nuclear β-catenin by immunofluorescent staining ([1]; 1 μM BIO vs DMSO, FIG. 5B) | Axin2 levels by quantitative PCR ([2]; 1 μM BIO vs control cells, FIG. 5D) | Proliferation by MTT assay ([3]; 1 μM BIO vs control cells, FIG. 5F) | Proliferation, normalized to growth in 10 mM sodium chloride [4] | Nuclear β-catenin by immunofluorescent staining ([1]; 10 mM lithium chloride vs 10 mM sodium chloride, FIG. 5A) | Axin2 levels by quantitative PCR ([2]; 10 mM lithium chloride vs control cells, FIG. 5C) | Proliferation by MTT assay ([3]; 10 mM lithium chloride vs control cells, FIG. 5E)
O=C1Nc2cc(Br)ccc2/C1=C1/Nc2ccccc2/C1=N\O [BIO] | increased nuclear β-catenin | increased Axing levels | decreased proliferation |  |  |  | 
[Cl-].[Li+] [lithium chloride] |  |  |  | inhibited proliferation in all human melanoma cell lines tested | increased nuclear β-catenin | increased Axing levels | decreased proliferation
